This note sets out measurements from paper PMC7504721, “Targeting the Initiator Protease of the Classical Pathway of Complement Using Fragment-Based Drug Discovery” (Molecules, 2020).

Assay [1] deals with T1, full-length C1r (Homo sapiens, UniProt P00736).
T1 construct: purchased Complement Technology (CompTech)
T1 sequence (P00736 18-463 limits assumed): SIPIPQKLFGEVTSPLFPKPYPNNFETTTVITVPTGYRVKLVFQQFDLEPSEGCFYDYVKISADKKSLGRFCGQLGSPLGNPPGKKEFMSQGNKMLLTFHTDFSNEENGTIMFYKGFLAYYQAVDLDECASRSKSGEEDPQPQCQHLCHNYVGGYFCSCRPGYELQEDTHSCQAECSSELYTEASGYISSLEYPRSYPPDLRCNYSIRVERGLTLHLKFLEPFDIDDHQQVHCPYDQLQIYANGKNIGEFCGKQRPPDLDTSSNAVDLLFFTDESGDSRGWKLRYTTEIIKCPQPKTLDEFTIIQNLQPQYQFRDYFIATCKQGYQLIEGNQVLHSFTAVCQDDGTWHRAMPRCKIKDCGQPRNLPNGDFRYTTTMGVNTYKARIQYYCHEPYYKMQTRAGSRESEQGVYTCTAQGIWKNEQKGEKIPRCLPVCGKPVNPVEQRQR
T1 sequence (P00736 464-705 limits assumed): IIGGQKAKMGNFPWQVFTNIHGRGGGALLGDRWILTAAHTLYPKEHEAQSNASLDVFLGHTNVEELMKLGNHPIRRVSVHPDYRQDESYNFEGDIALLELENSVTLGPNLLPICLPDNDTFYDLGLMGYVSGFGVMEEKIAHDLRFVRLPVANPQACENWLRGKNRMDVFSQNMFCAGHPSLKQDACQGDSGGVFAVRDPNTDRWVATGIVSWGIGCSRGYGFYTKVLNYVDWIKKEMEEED
The assay can be described thus: SPR dose-dependent binding, steady-state affinity. Here is the method:
All SPR experiments were carried out using a Biacore T200 (GE Healthcare, Chicago, IL, USA) at 25 °C. For all experiments, a running buffer (HBS-T) of 20 mM HEPES (pH 7.3), 140 mM NaCl, 0.005% (v/v) Tween-20, 5% DMSO (v/v) was used. For each experiment, DMSO calibration curves ranging from 4% to 5.5% DMSO (v/v) were collected at the beginning, end, and every 50 cycles throughout the duration of the experiment. All experiments were performed using HC1500M sensor chips (Xantec, Duesseldorf, Germany). In total, 10 sensor chips and 16 ligand immobilized surfaces were created over the course of this study (detailed in Table S2). In all cases, C1r proteins were immobilized onto chip surfaces using amine-coupling chemistry with 1-ethyl-3-(3-dimethylaminopropyl)-carbodiimide) (EDC), N-hydroxysuccinimide (NHS), followed by ethanolamine. Briefly, 100 mM of EDC and NHS were mixed and injected to activate the chip surface followed by the C1r protein ligand captured at a defined resonance unit (RU) level, followed by reaction quenching with 100 mM ethanolamine pH 8.5. Flow cell 1 was always used as a reference cell (no ligand), unless otherwise noted. All sensorgrams were reference and blank subtracted and analyzed using T200 Evaluation Software (GE Healthcare, Chicago, IL, USA).
To further evaluate hit compounds from the initial SPR screen, dose-dependent SPR binding assays were carried out. Three replicate flow cells were used containing both low and high immobilization densities of C1r (see Table S2). Hit compounds were tested for dose-dependent binding to full-length C1r using a compound concentration range of 7.8–500 µM. T200 evaluation software was used to calculate steady-state affinities for each compound by fitting sensorgrams from each variable concentration injection dataset using a 1:1 Langmuir model of interaction constrained by a theoretical experimental binding response based on the mol. wt. of each compound and derived as stated above. KD values are reported as the mean ± the standard deviation from at least three independent measurements.

The subject of assay [2] is classical pathway. The assay can be described thus: Classical pathway-specific ELISA-based complement inhibition assay (C4b deposition, IgM-coated plate, human serum). In kind it is biochemical. The following applies: single 500 µM concentration, triplicate, 1% normal human serum, unpaired t-test p < 0.05. On the procedure:
To carry out classical pathway ELISA-based inhibition assays, IgM was dissolved in coating buffer (100 mM Na2CO3/NaHCO3, pH 9.6) to a final concentration of 3 µg/mL and was dispensed into 96-well plates at 100 µL per well. Mannan was dissolved to 2 µg/mL and lipopolysaccharides (LPS) were dissolved to 10 µg/mL in coating buffer for use in lectin and alternative pathway inhibition assays, respectively. Immobilization was allowed to proceed overnight at 25 °C. The immobilization reagent was then removed, followed by three washes in washing buffer (50 mM Tris pH 8.0, 200 mM NaCl, 0.05% (v/v) Tween-20), and blocked using 100 µL of 1% (w/v) bovine serum albumin in PBS-T for 1 h at 37°C. Blocking buffer was removed and plates were washed three times in washing buffer. Next, 500 µM of each compound, 5% (v/v) DMSO, and 1% (v/v) normal human serum (Innovative Research) (final concentrations) were dissolved in classical/lectin pathway ELISA buffer (20 mM HEPES (pH 7.3), 0.1% (w/v) gelatin, 140 mM NaCl, 2 mM CaCl2, 0.5 mM MgCl2) and added to the IgM-coated plate for 1 h at 37 °C. For the lectin pathway-specific ELISAs shown in Figure 5D, we used C1q-depleted serum from CompTech at 2% (v/v) and thus the classical pathway assays for this analysis were also performed using serum from CompTech at 2% (v/v). For the alternative pathway, 20% (v/v) normal human serum (CompTech) (final concentration) and alternative pathway ELISA buffer (20 mM HEPES, (pH 7.5), 0.1% (w/v) gelatin, 140 mM NaCl, 2 mM CaCl2, 0.5 mM MgCl2) were used in place of classical/lectin pathway ELISA buffer. Plates were then washed three times in wash buffer and each well was filled with 100 µL of α-C4 (HYB 162-02, Santa Cruz Biotechnology) diluted 1:300 for classical and lectin pathway assays and 100 µL of C3b (WM-1, Sigma) diluted 1:300 for alternative pathway assays. Plates were again incubated at 37 °C for 1 h, washed three times, filled with 100 µL of HRP-conjugated goat-α-mouse secondary antibody (diluted 1:3000) (Thermo Scientific, Waltham, MA, USA), and rocked gently for 1 h at 25 °C. After three more washes, 50 µl of substrate (1-step Ultra TMB, Thermo Scientific, Waltham, MA, USA) was added to each well and rocked for 15 min in the dark at 25 °C. The reaction was stopped with 50 µL of 0.16 M sulfuric acid, and the plate was read at 450 nm using an EnSight multimode plate reader (Perkin-Elmer). Each column contained a positive control for full complement activity (5% (v/v) blank DMSO with 1% (v/v) serum) and a negative control for no complement activity (5% (v/v) blank DMSO and no serum). Positive controls (1% (v/v) serum, no inhibitor) were defined as 100% C4b or C3b signal whereas negative controls (no serum) were defined as 0% C4b or C3b signal for each column. Compounds that inhibited complement deposition relative to the control were then evaluated using the same assay setup across a two-fold variable concentration series for each compound (7.8–500 µM). […] All experiments were performed no less than three times.
Statistical analyses were performed using GraphPad Prism version 8. For complement inhibition assays, measures of statistical significance for single-dose experiments were assessed using unpaired Student’s t-tests compared to no inhibitor controls (pathway ELISAs) or non-binding control compounds (classical pathway ELISA). Statistical significance was defined as p < 0.05. Calculation of IC50 values from dose-dependent complement assays were obtained by non-linear regression analysis using a using an inhibitor vs. response model and with 95% confidence intervals reported. For non-linear regression analyses, the top and bottom of each curve were constrained to 100 and 0, respectively.
(An ELISA detects its analyte on a solid surface through an enzyme-linked reagent.)

For `CN1c2ccccc2N(C)C1c1ccccc1` [CMP-4], in assay [1] (1:1 steady-state binding model, mean ± S.D. from three independent injection series, 25 °C), binding was characterised by a dissociation constant (Kd) of 720 µM. Moreover, the “Ligand efficiency (LE)” value in assay [1] (LE = ΔG/number of non-hydrogen atoms, ΔG = -RT x ln KD,C1r, using KD values of Fig. 3) was found to be 0.25. Moreover, in assay [2], the “inhibition of classical pathway (C4b deposition) relative to non-binding control compound” value is recorded as “statistically significant inhibitory activity”.
